Assay results taken from PMC6199744, “Development of Chemical Proteomics for the Folateome and Analysis of the Kinetoplastid Folateome” (ACS Infectious Diseases, 2018).

System: L. major lysate proteins
Assay: Multitargeted bead mixture chemoproteomics, single concentration competition, proteome-wide
Format: binding
Settings: for fold change / fold change relative to vehicle control: vehicle control = 1; for fold change relative to vehicle control: competition with free ligand

Structure (SMILES): Nc1nc2cccc(-c3ccccc3)c2n1Cc1ccc(Cl)c(Cl)c1 [compound 3]
- fold change vs vehicle control (protein LMJF.22.0730 HY[…], CONSERVED): 1.03
- fold change (protein LMJF.22.1460 I/6 AUTOANTIGEN-LIKE PROTEIN): 1.02
- fold change vs vehicle control (protein LMJF.22.1540 ALANYL-TRNA SYNTHETASE, PUTATIVE): 0.95
- fold change vs vehicle control (protein LMJF.23.0370 […] OXIDASE SUBUNIT 10, PUTATIVE): 1.06
- fold change (protein LMJF.23.0830 NA/H ANTIPORTER-LIKE PROTEIN): 1.19
- fold change (protein LMJF.23.1020 HY[…], UNKNOWN FUNCTION): 0.96
- fold change (protein LMJF.23.1220 T-COMPLEX PROTEIN 1, GAMMA SUBUNIT, PUTATIVE): 1.01
- fold change vs vehicle control (protein LMJF.24.0140 ANKYRIN/TPR REPEAT PROTEIN): 0.99
- fold change (protein LMJF.24.0280 DYNEIN INTERMEDIATE-CHAIN-LIKE PROTEIN): 0.96
- fold change (protein LMJF.24.0770 MALIC ENZYME, PUTATIVE): 0.99
- fold change relative to vehicle control (protein LMJF.24.1510 IGE-DEPENDENT HISTAMINE-RELEASING FACTOR, PUTATIVE): 1.23
- fold change vs vehicle control (protein LMJF.24.1630, SUCCINATE DEHYDROGENASE FLAVOPROTEIN, PUTATIVE): 0.9
- fold change vs vehicle control (protein LMJF.24.1840 LYSOPHOSPHOLIPASE, PUTATIVE): 1.09
- fold change relative to vehicle control (protein LMJF.24.2060 TRANSKETOLASE): 1.1
- fold change (protein LMJF.24.2250 FATTY-ACID DESATURASE, PUTATIVE): 0.99
- fold change vs vehicle control (protein LMJF.25.0120 ELECTRON TRANSFER FLAVOPROTEIN, PUTATIVE): 0.93
- fold change vs vehicle control (protein LMJF.25.0260 DYNEIN LIGHT CHAIN 1, CYTOPLASMIC, PUTATIVE): 1.01
- fold change relative to vehicle control (protein LMJF.25.0910 C[…]): 1.18
- fold change vs vehicle control (protein LMJF.25.1180, ATPASE BETA SUBUNIT, PUTATIVE): 1.09
- fold change (protein LMJF.25.1610 HY[…], CONSERVED): 0.9
- fold change (protein LMJF.25.1620 HY[…], CONSERVED): 1.16
- fold change vs vehicle control (protein LMJF.26.1240 HEAT SHOCK PROTEIN 70-RELATED PROTEIN): 0.94
- fold change vs vehicle control (protein LMJF.26.1710 […] OXIDASE SUBUNIT V, PUTATIVE): 1.08
- fold change vs vehicle control (protein LMJF.26.1960 HY[…], CONSERVED): 0.96
- fold change vs vehicle control (protein LMJF.26.2000 HY[…], CONSERVED): 1.09
- fold change vs vehicle control (protein LMJF.27.0420 RIBOKINASE, PUTATIVE): 1.13
- fold change vs vehicle control (protein LMJF.27.1060 CYSTEINE DESULFURASE, PUTATIVE): 1.05
- fold change (protein LMJF.27.1310 ARGINYL-TRNA SYNTHETASE, PUTATIVE): 0.9
- fold change vs vehicle control (protein LMJF.27.2400 HEAT SHOCK PROTEIN DNAJ, PUTATIVE): 0.99
- fold change vs vehicle control (protein LMJF.28.0110 […] 3 SUBUNIT, PUTATIVE): 0.99
- fold change vs vehicle control (protein LMJF.28.0930 HY[…], CONSERVED): 1.07
- fold change vs vehicle control (protein LMJF.28.0950 HY[…], CONSERVED): 1.01
- fold change vs vehicle control (protein LMJF.28.0980 P27 PROTEIN, PUTATIVE): 1.09
- fold change vs vehicle control (protein LMJF.28.1950 X-PRO, DIPEPTIDYL-PEPTIDASE,SERINE PEPTIDASE, CLAN SC, FAMILY S15, PUTATIVE): 1.06
- fold change relative to vehicle control (protein LMJF.28.2770 HEAT-SHOCK PROTEIN HSP70, PUTATIVE): 0.99
- fold change (protein LMJF.29.0060 TRYPTOPHANYL-TRNA SYNTHETASE, PUTATIVE): 1.05
- fold change (protein LMJF.29.0820 CYSTEINE PEPTIDASE C (CPC)): 0.91
- fold change relative to vehicle control (protein LMJF.29.0850 HIGH MOBILITY GROUP PROTEIN HOMOLOG TDP-1, PUTATIVE): 1.27
- fold change vs vehicle control (protein LMJF.29.1160 TRYPAREDOXIN): 0.99
- fold change (protein LMJF.29.1760 PAR[…] PROTEIN 1D, PUTATIVE): 0.75
- fold change vs vehicle control (protein LMJF.29.1780 D[…] PROTEIN, PUTATIVE): 1.05
- fold change vs vehicle control (protein LMJF.29.2240 AMINOPEPTIDASE, PUTATIVE): 1.03
- fold change (protein LMJF.29.2310 ENOYL-COA HYDRATASE/ISOMERASE-LIKE PROTEIN): 0.98
- fold change (protein LMJF.29.2860 40S RIBOSOMAL PROTEIN S19-LIKE PROTEIN): 1.34
- fold change vs vehicle control (protein LMJF.30.0850 SURFACE PROTEIN AMASTIN, PUTATIVE): 1.12
- fold change (protein LMJF.30.1250 PYRIDOXAL KINASE, PUTATIVE): 0.82
- fold change (protein LMJF.30.1940 SUCCINYL-COA:3-KETOACID-COENZYME A TRANSFERASE- LIKE PROTEIN): 1.02
- fold change vs vehicle control (protein LMJF.30.3190 3-HYDROXY-3-METHYLGLUTARYL-COA REDUCTASE): 0.77
- fold change vs vehicle control (protein LMJF.30.3520 S-ADENOSYL[…]): 1.03
- fold change vs vehicle control (protein LMJF.31.0440 CYTOSKELETON-[…] CAP5 5, PUTATIVE): 0.97
- fold change (protein LMJF.31.1130 N-ACYL-L-AMINO ACID AMIDOHYDROLASE, PUTATIVE): 0.9
- fold change vs vehicle control (protein LMJF.31.1640 THIOLASE PROTEIN-LIKE PROTEIN): 1.31
- fold change (protein LMJF.31.1800 AMINO ACID PERMEASE): 0.96
- fold change (protein LMJF.31.2250 3,2-TRANS-ENOYL-COA ISOMERASE, MIT[…], PUTATIVE): 1
- fold change vs vehicle control (protein LMJF.31.2790 ADP-RI[…], PUTATIVE): 1.03
- fold change (protein LMJF.31.3130 […]-COA CARBOXYLASE BIOTINYLATED […]-LIKE PROTEIN): 0.99
- fold change (protein LMJF.32.0010 HY[…], CONSERVED): 0.78
- fold change vs vehicle control (protein LMJF.32.0400 ATP-DEPENDENT RNA HELICASE, PUTATIVE): 1.02
- fold change vs vehicle control (protein LMJF.32.0520 PROFILIN, PUTATIVE): 1.17
- fold change (protein LMJF.32.1000 […]-COMPLEX PROTEIN, PUTATIVE): 0.92
- fold change vs vehicle control (protein LMJF.32.3010 HY[…], CONSERVED,LEUCINE-RICH REPEAT PROTEIN, PUTATIVE): 1.47
- fold change vs vehicle control (protein LMJF.32.3870 MYOSIN XXI): 0.97
- fold change vs vehicle control (protein LMJF.33.0890, HY[…], CONSERVED): 1.03
- fold change vs vehicle control (protein LMJF.33.1070 HY[…], UNKNOWN FUNCTION): 1.02
- fold change (protein LMJF.33.1330 CYSTEINE CONJUGATE BETA-LYASE, AMINOTRANSFERASE- LIKE PROTEIN): 1.06
- fold change (protein LMJF.33.1610 PEPTIDASE M20/M25/M40, PUTATIVE): 0.91
- fold change relative to vehicle control (protein LMJF.33.1630 CYCLOPHILIN 4, PUTATIVE): 0.93
- fold change vs vehicle control (protein LMJF.33.2300 UDP-GLC 4'-EPIMERASE, PUTATIVE): 0.98
- fold change vs vehicle control (protein LMJF.33.2390 HEAT SHOCK PROTEIN, PUTATIVE): 0.99
- fold change (protein LMJF.33.2410 HY[…], CONSERVED): 1.06
- fold change (protein LMJF.33.3150 40S RIBOSOMAL PROTEIN S13, PUTATIVE): 1.18
- fold change (protein LMJF.34.3500 RUVB-LIKE 1 DNA HELICASE, PUTATIVE): 1.19
- fold change (protein LMJF.34.3670 VACUOLAR ATP SYNTHASE CATALYTIC SUBUNIT A, PUTATIVE): 0.9
- fold change (protein LMJF.34.3740 SERINE PALMITOYLTRANSFERASE-LIKE PROTEIN): 0.95
- fold change (protein LMJF.34.4120 HY[…], CONSERVED): 0.82
- fold change vs vehicle control (protein LMJF.34.4370 20S […] 7 SUBUNIT, (PUTATIVE)): 1.2
- fold change (protein LMJF.35.0370 ATP-DEPENDENT DEAD-BOX RNA HELICASE, PUTATIVE): 1.01
- fold change vs vehicle control (protein LMJF.35.1380, MIT[…], BETA SUBUNIT, PUTATIVE): 1.16
- fold change vs vehicle control (protein LMJF.35.1410 THREONYL-TRNA SYNTHETASE, PUTATIVE): 1.01
- fold change vs vehicle control (protein LMJF.35.1720 CYCLOPHILIN 14, PUTATIVE): 1.09
- fold change (protein LMJF.35.2500 HY[…], CONSERVED): 1.26
- fold change (protein LMJF.35.2730 ACYL-COA DEHYDROGENASE, PUTATIVE): 1.14
- fold change relative to vehicle control (protein LMJF.35.3010 […],TRYPANOTHIONE-DEPENDENT […]): 0.92
- fold change vs vehicle control (protein LMJF.35.3100 ATP-DEPENDENT RNA HELICASE, PUTATIVE): 1.01
- fold change vs vehicle control (protein LMJF.35.3340 6-phosphogluconate dehydrogenase): 1.11
- fold change (protein LMJF.35.3700 GIM5A PROTEIN, PUTATIVE,[…] PROTEIN): 0.85
- fold change vs vehicle control (protein LMJF.35.3840, […] 2 SUBUNIT, PUTATIVE): 0.92
- fold change vs vehicle control (protein LMJF.35.3860 T-COMPLEX PROTEIN 1, ETA SUBUNIT, PUTATIVE): 1
- fold change (protein LMJF.35.4550 HY[…], CONSERVED): 1.56
- fold change (protein LMJF.35.4770 CYCLOPHILIN 40): 0.89
- fold change (protein LMJF.35.4850 […] 1 SUBUNIT, PUTATIVE): 0.85
- fold change (protein LMJF.35.4860 HY[…], CONSERVED): 0.98
- fold change relative to vehicle control (protein LMJF.35.5330 ISOPENTENYL-D[…]-ISOMERASE, PUTATIVE,ISOMERASE, PUTATIVE): 1.32
- fold change vs vehicle control (protein LMJF.36.0180 […] 2): 1.05
- fold change vs vehicle control (protein LMJF.36.0620 HY[…], CONSERVED): 1.06
- fold change vs vehicle control (protein LMJF.36.0990 40S RIBOSOMAL PROTEIN S10, PUTATIVE): 1.12
- fold change vs vehicle control (protein LMJF.36.2020 CHAPERONIN HSP60, MIT[…]): 0.88
- fold change vs vehicle control (protein LMJF.36.3460 HY[…], CONSERVED): 1.04
- fold change (protein LMJF.36.3760 60S RIBOSOMAL PROTEIN L10A, PUTATIVE): 1.19
- fold change vs vehicle control (protein LMJF.36.3840 GLYCYL TRNA SYNTHETASE, PUTATIVE): 0.95
- fold change vs vehicle control (protein LMJF.36.4170 OXIDOREDUCTASE, PUTATIVE): 0.93
- fold change vs vehicle control (protein LMJF.36.5010 40S RIBOSOMAL PROTEIN SA, PUTATIVE): 1.04
- fold change vs vehicle control (protein LMJF.36.5620 ISOLEUCYL-TRNA SYNTHETASE, PUTATIVE): 0.99
- fold change vs vehicle control (protein LMJF.36.6430 PROTEIN TRANSPORT PROTEIN SEC23-LIKE PROTEIN): 1.04
- fold change (protein LMJF.36.6760 HY[…], CONSERVED): 0.97
- fold change vs vehicle control (protein LMJF.36.6910 T-COMPLEX PROTEIN 1, THETA SUBUNIT, PUTATIVE): 1
- fold change vs vehicle control (protein LMJF.36.6940 disulfide isomerase PDI): 1.23
- fold change vs vehicle control (protein LMJF.[…] […] EXOPOLYPHOSPHATASE, PUTATIVE): 0.81
